# Patent publication US9006450B2 (Boehringer Ingelheim International GmbH, priority 2010, dated 2015)
# Biological target: T1, human ACC2 (Homo sapiens, UniProt O00763)
# T1 construct: made in house; host or cells: insect cells (baculoviral expression system)
# Assay: ACC2 assay, spectrophotometric 384 well assay (NADH-linked, coupled lactate dehydrogenase/pyruvate kinase)
# Format: biochemical
# Conditions: ACC2 assay, hACC2 construct lacking 128 N-terminal amino acids, 25° C., 340 nm; read-out: IC50
# How it was run: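 Human ACC2 lacking N-terminal 128 aa, baculovirus/insect-cell expressed, anion-exchange purified; 100 mM Tris pH 7.5, 10 mM citrate, 25 mM KHCO3, 1% DMSO. Started with 200 μM NADH and acetyl-CoA plus 500 μM ATP; PK/LDH-coupled A340 decrease read 15 min at 25° C. IC50 by nonlinear fit of low-control-subtracted slopes.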
# T1 sequence (O00763 129-2458 limits assumed): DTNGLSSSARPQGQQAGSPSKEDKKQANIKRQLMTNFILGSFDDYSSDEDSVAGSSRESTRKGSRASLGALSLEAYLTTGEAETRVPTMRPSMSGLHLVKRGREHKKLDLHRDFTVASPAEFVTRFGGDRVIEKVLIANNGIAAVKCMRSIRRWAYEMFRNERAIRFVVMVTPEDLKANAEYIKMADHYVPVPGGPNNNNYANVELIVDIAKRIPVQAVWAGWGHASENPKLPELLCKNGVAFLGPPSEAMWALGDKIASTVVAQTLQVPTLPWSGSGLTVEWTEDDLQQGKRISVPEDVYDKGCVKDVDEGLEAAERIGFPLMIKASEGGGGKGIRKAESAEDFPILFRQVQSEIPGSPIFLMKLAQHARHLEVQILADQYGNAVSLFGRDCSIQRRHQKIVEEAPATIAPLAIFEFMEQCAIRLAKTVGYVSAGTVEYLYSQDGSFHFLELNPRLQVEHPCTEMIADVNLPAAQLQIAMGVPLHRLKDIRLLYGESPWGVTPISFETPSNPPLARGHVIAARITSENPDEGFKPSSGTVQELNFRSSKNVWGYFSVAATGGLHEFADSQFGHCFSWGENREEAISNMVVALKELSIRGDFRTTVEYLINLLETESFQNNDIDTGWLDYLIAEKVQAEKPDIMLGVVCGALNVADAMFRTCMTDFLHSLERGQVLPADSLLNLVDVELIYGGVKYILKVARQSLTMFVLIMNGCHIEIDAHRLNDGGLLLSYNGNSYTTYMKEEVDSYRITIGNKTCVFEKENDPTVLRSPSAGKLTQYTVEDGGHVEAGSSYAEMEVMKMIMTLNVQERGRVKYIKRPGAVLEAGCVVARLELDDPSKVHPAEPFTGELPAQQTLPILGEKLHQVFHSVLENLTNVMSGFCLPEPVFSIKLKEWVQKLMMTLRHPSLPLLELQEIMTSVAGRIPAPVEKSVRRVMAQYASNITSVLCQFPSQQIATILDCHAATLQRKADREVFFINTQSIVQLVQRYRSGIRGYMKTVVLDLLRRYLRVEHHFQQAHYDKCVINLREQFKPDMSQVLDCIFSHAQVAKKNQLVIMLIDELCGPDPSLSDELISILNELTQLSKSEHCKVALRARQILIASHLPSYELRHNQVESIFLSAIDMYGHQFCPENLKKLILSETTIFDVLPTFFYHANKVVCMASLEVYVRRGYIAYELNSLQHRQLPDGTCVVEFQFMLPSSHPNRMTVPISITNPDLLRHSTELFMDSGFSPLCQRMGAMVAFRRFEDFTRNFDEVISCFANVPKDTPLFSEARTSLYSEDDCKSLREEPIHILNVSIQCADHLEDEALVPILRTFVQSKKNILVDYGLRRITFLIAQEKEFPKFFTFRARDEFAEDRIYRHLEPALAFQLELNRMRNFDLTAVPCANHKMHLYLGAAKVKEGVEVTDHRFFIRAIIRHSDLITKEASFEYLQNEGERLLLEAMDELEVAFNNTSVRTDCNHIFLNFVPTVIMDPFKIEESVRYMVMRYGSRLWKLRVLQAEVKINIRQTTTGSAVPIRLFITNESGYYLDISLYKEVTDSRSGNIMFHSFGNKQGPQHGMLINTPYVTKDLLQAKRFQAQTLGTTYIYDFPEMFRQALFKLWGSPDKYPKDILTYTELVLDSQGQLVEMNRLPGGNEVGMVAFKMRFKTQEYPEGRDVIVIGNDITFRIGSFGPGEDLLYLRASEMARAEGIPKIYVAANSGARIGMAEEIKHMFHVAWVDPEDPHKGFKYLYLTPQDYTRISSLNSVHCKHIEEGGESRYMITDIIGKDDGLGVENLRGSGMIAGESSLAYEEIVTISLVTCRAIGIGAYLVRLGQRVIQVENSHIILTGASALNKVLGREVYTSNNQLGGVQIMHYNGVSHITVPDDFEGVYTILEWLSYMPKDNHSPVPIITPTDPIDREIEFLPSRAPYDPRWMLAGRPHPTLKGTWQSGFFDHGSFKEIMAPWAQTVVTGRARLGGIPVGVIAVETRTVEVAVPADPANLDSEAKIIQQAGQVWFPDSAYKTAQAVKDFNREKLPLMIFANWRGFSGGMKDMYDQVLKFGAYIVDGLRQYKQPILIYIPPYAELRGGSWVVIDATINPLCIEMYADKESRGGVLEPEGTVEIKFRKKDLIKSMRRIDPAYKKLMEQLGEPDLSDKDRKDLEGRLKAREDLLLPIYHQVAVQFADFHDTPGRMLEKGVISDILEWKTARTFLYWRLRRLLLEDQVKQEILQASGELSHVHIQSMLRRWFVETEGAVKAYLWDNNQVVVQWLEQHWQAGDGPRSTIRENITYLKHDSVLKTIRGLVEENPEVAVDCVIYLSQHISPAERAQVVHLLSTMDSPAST
row,Structure (SMILES),IC50 [nM]
1,CC(C)Oc1ncnc(N2CCC(c3ccc([C@H](C)NC(=O)C4CC4)cc3)CC2)c1F [Example 11.130],370
2,CCOc1ccc(N2CCC(c3ccc([C@H](C)NC(=O)C4CC(OC)C4)cc3)CC2)cc1 (stereo partly shown) [Example 6.37],760
3,CCCOc1ccc(N2CCC(c3ccc([C@H](C)NC(=O)CC)cc3)CC2)c(OC)c1 [Example 1.147],490
4,CCC(C)Oc1ccc(N2CCC(c3ccc([C@H](C)NC(=O)OC)cc3)CC2)cc1 (stereo partly shown) [Example 1.15],240
5,CC(=O)N[C@@H](C)c1ccc(C2CCN(c3ncc(-c4ccc5occc5c4)cn3)CC2)cc1 [Example 10.88],30
6,CCN1CCCC1CNC(=O)c1cnc(N2CCC(c3ccc([C@H](C)NC(C)=O)cc3)CC2)nc1 (stereo partly shown) [Example 18.44],18300
7,CC(=O)N[C@@H](C)c1ccc(C2CCN(c3ncc(C(=O)Nc4ccc5c(c4)OCO5)cn3)CC2)cc1 [Example 18.18],1100
8,CC(=O)N[C@@H](C)c1ccc(C2CCN(c3ncc(-c4ccc(Cl)c(C)c4)cn3)CC2)cc1 [Example 10.76],110
9,COc1ccc(Nc2cc(N3CCC(c4ccc([C@H](C)NC(C)=O)cc4)CC3)ncn2)cc1 [Example 11.53],6000
10,COc1cc(OC2CC2)ccc1N1CCC(c2ccc([C@H](C)NC(=O)N(C)C)cc2)CC1 [Example 1.106],170
11,CCOc1ccc(N2CCC(c3ccc([C@H](C)NC(=O)CC)cc3)CC2)c(F)c1 [Example 1.168],500
12,C[C@H](NC(=O)C1CC1)c1ccc(C2CCN(c3nc(Cl)ncc3F)CC2)cc1 [Example 5.36],3100
13,CCOc1ccc(-c2cnc(N3CCC(c4ccc([C@H](C)NC(C)=O)cc4)CC3)nc2)cc1 [Example 10.5],540

# Other lines, results leading:
row,IC50 [nM],Structure (SMILES)
1,200,CC(=O)N[C@@H](C)c1ccc(C2CCN(c3cccc(OCC4CC4)c3)CC2)cc1 [Example 8.3]
2,270,CC(=O)N[C@@H](C)c1ccc(C2CCN(c3ccnc(O[C@H]4CCOC4)c3)CC2)cc1 [Example 19.16]
3,60,CC(=O)N[C@@H](C)c1ccc(C2CCN(c3ccc(OCC4CC4(F)F)cc3)CC2)cc1 (stereo partly shown) [Example 8.66]
4,140,CC(=O)N[C@@H](C)c1ccc(C2CCN(c3ccnc(OCC4CCC4)c3)CC2)cc1 [Example 19.11]
5,3200,CC(=O)N[C@@H](C)c1ccc(C2CCN(c3ccc(C(C)(F)F)cn3)CC2)cc1 [Example 5.34]
6,1400,CCCOc1cnc(N2CCC(c3ccc([C@H](C)NC(=O)C4CC4)cc3)CC2)nc1 [Example 4.305]
7,3300,CC(=O)N[C@@H](C)c1ccc(C2CCN(c3ccnc(NC(C)C)n3)CC2)cc1 [Example 11.43]
8,9000,CC(=O)N[C@@H](C)c1ccc(C2CCN(c3ccnc(C)n3)CC2)cc1 [Example 5.26]
9,1500,CCC(C)Oc1ccc(N2CCC(c3ccc([C@H](C)NC(C)=O)cc3)CC2)cc1OC (stereo partly shown) [Example 8.54]
10,990,COc1ccc2nc(N3CCC(c4ccc([C@H](C)NC(C)=O)cc4)CC3)ccc2c1 [Example 5.24]
11,80,CC(=O)N[C@@H](C)c1ccc(C2CCN(c3cccc(C(F)(F)F)c3)CC2)cc1 [Example 1.188]
12,2200,CC(=O)N[C@@H](C)c1ccc(C2CCN(c3ccnc(NCC(C)C)n3)CC2)cc1 [Example 11.66]
13,1300,COc1nc(OCC2CC2)ncc1N1CCC(c2ccc([C@H](C)NC(C)=O)cc2)CC1 [Example 16.11]
14,300,CCOCCOc1cccc(N2CCC(c3ccc([C@H](C)NC(C)=O)cc3)CC2)c1 [Example 8.2]
15,1400,CC(=O)N[C@@H](C)c1ccc(C2CCN(c3cccc(OC4CCCOC4)c3)CC2)cc1 (stereo partly shown) [Example 9.3]
16,100,CC(=O)N[C@@H](C)c1ccc(C2CCN(c3ccnc(OCC4CC4)c3)CC2)cc1 [Example 19.10]
17,2200,CCOc1ccc(N2CCC(c3ccc([C@H](C)NC(=O)N4CCC4)cc3)CC2)cc1 [Example 14.66]
18,500,COC(=O)N[C@@H](C)c1ccc(C2CCN(c3ccnc(OC(C)C)c3)CC2)cc1 [Example 1.136]
